Values after ≈ are worked out from the molar mass of the structure shown. Read-outs that look alike come from different tables or passages of the source.
Experiments:
S. aureus strain no 13 = assay: MIC; settings: Staphylococcus aureus, NO13, read-out: MIC of AZT
A. baumannii strain no 3 = assay: MIC; assay type: cell-based, Acinetobacter baumannii; settings: for MIC of AZT: A. baumannii strain no 3
E. coli strain no 2 = assay: MIC; settings: Escherichia coli
E. coli ATCC 25922 = assay: MIC, in vitro sensitivity of the strain used in vivo; settings: Escherichia coli, ATCC25922, read-out: MIC against E. coli ATCC 25922
K. pneumoniae EN011 = assay: MIC; assay type: cell-based, Klebsiella pneumoniae; settings: Klebsiella pneumoniae, EN011, K. pneumoniae EN011; Combination 1 (AZT+trimethoprim+uridine)
[1] = test system: P. aeruginosa strain no 10; assay: MIC; assay type: cell-based, Pseudomonas aeruginosa; settings: for MIC of AZT: P. aeruginosa strain no 10
A. baumannii EN0007 = assay: MIC; assay type: cell-based, A. baumanii; settings: in AZT+trimethoprim+uridine combination
E. coli EN013 = assay: MIC; assay type: cell-based, Escherichia coli; settings: Escherichia coli, EN013, E. coli EN013
P. aeruginosa EN0004 = assay: MIC; assay type: cell-based; settings: in AZT+trimethoprim+uridine combination
E. coli strain no 5 = assay: MIC; assay type: cell-based; settings: Escherichia coli, NO5, read-out: MIC of AZT

SMILES: Cc1cn([C@H]2C[C@H](N=[N+]=[N-])[C@@H](CO)O2)c(=O)[nH]c1=O [AZT, 3′-azido-3′-deoxythymidine]
- log diff peritoneum vs start of treatment (E. coli; AZT 30 mg/kg): 0.38
- mean log peritoneum (E. coli; AZT 30 mg/kg): 5.68
- score at sampling (E. coli; AZT 30 mg/kg, single mice): 1
- inhibition in mice infected with E. coli (E. coli; murine peritonitis model): slight inhibition
- MIC (S. aureus strain no 13): > 150 µg/mL
- MIC of AZT (A. baumannii strain no 3; uridine 10 μg/ml): >150 µg/mL
- MIC of AZT (A. baumannii strain no 3; uridine 50 μg/ml): >150 µg/mL
- MIC of AZT (A. baumannii strain no 3; uridine 100 μg/ml): >150 µg/mL
- MIC of AZT (A. baumannii strain no 3; uridine 200 μg/ml): >150 µg/mL
- MIC (A. baumannii strain no 3; Acinetobacter baumannii, NO3, read-out: MIC of AZT): > 150 µg/mL
- MIC (E. coli strain no 2; NO2, E. coli strain 2, 5 uM thymidine, uridine 0 μg/ml): > 30 µg/mL
- MIC (E. coli strain no 2; NO2, E. coli strain 2, 5 uM thymidine, uridine 10 μg/ml): 25 to 30 µg/mL (≈ 93.5 to 112 µM)
- MIC (E. coli strain no 2; NO2, E. coli strain 2, 5 uM thymidine, uridine 100 μg/ml): 10 to 20 µg/mL (≈ 37.4 to 74.8 µM)
- MIC (E. coli strain no 2; NO2, read-out: MIC AZT, E. coli strain 2, thymidine 0 μM, uridine 0): 20 to 30 µg/mL (≈ 74.8 to 112 µM)
- MIC (E. coli strain no 2; NO2, read-out: MIC AZT, E. coli strain 2, thymidine 0 μM, uridine 100 μg/ml): 5 to 10 µg/mL (≈ 18.7 to 37.4 µM)
- MIC (E. coli strain no 2; NO2, read-out: MIC AZT, E. coli strain 2, thymidine 10 μM, uridine 0): > 30 µg/mL
- MIC (E. coli strain no 2; NO2, read-out: MIC AZT, E. coli strain 2, thymidine 10 μM, uridine 100 μg/ml): > 30 µg/mL
- MIC (E. coli strain no 2; NO2, read-out: MIC AZT, E. coli strain 2, thymidine 10 μM, uridine 100 and trimethoprim 1 μg/ml): 0.1 to 0.5 µg/mL (≈ 0.374 to 1.87 µM)
- MIC (E. coli strain no 2; NO2, read-out: MIC AZT, E. coli strain 2, thymidine 30 μM, uridine 0): > 30 µg/mL
- MIC (E. coli strain no 2; NO2, read-out: MIC AZT, E. coli strain 2, thymidine 30 μM, uridine 100 μg/ml): > 30 µg/mL
- MIC (E. coli strain no 2; NO2, read-out: MIC of AZT, E. coli strain no 2, trimethoprim 0.5 μg/ml, uridine 0 μg/ml): 0.012 to 0.025 µg/mL
- MIC (E. coli strain no 2; NO2, read-out: MIC of AZT, E. coli strain no 2, trimethoprim 0.5 μg/ml, uridine 1 μg/ml): ≤ 0.006 µg/mL
- MIC (E. coli strain no 2; NO2, read-out: MIC of AZT, E. coli strain no 2, trimethoprim 0.5 μg/ml, uridine 10 μg/ml): 0.05 to 0.1 µg/mL
- MIC (E. coli strain no 2; NO2, read-out: MIC of AZT, E. coli strain no 2, trimethoprim 0.5 μg/ml, uridine 100 μg/ml): 0.025 to 0.05 µg/mL
- MIC (E. coli strain no 2; NO2, read-out: MIC of AZT, E. coli strain no 2, trimethoprim 0.5 μg/ml, uridine 200 μg/ml): 0.012 to 0.025 µg/mL
- MIC (E. coli strain no 2; NO2, read-out: MIC of AZT, E. coli strain no 2, trimethoprim 1 μg/ml, uridine 0 μg/ml): 0.012 to 0.025 µg/mL
- MIC (E. coli strain no 2; NO2, read-out: MIC of AZT, E. coli strain no 2, trimethoprim 1 μg/ml, uridine 1 μg/ml): ≤ 0.006 µg/mL
- MIC (E. coli strain no 2; NO2, read-out: MIC of AZT, E. coli strain no 2, trimethoprim 1 μg/ml, uridine 10 μg/ml): ≤ 0.006 µg/mL
- MIC (E. coli strain no 2; NO2, read-out: MIC of AZT, E. coli strain no 2, trimethoprim 1 μg/ml, uridine 100 μg/ml): 0.025 to 0.05 µg/mL
- MIC (E. coli strain no 2; NO2, read-out: MIC of AZT, E. coli strain no 2, trimethoprim 1 μg/ml, uridine 200 μg/ml): 0.012 to 0.025 µg/mL
- MIC (E. coli strain no 2; NO2, read-out: MIC of AZT, E. coli strain no 2, trimethoprim 2 μg/ml, uridine 0 μg/ml): 0.006 to 0.012 µg/mL
- MIC (E. coli strain no 2; NO2, read-out: MIC of AZT, E. coli strain no 2, trimethoprim 2 μg/ml, uridine 1 μg/ml): ≤ 0.006 µg/mL
- MIC (E. coli strain no 2; NO2, read-out: MIC of AZT, E. coli strain no 2, trimethoprim 2 μg/ml, uridine 10 μg/ml): ≤ 0.006 µg/mL
- MIC (E. coli strain no 2; NO2, read-out: MIC of AZT, E. coli strain no 2, trimethoprim 2 μg/ml, uridine 100 μg/ml): 0.012 to 0.025 µg/mL
- MIC (E. coli strain no 2; NO2, read-out: MIC of AZT, E. coli strain no 2, trimethoprim 2 μg/ml, uridine 200 μg/ml): 0.006 to 0.012 µg/mL
- MIC (E. coli strain no 2; NO2, read-out: MIC of AZT, E. coli strain no 2, uridine 0 μg/ml): 20 to 25 µg/mL
- MIC (E. coli strain no 2; NO2, read-out: MIC of AZT, E. coli strain no 2, uridine 10 μg/ml): 20 to 25 µg/mL
- MIC (E. coli strain no 2; NO2, read-out: MIC of AZT, E. coli strain no 2, uridine 50 μg/ml): 15 to 20 µg/mL
- MIC (E. coli strain no 2; NO2, read-out: MIC of AZT, E. coli strain no 2, uridine 100 μg/ml): 5 to 15 µg/mL
- MIC (E. coli strain no 2; NO2, read-out: MIC of AZT, E. coli strain no 2, uridine 200 μg/ml): 5 to 15 µg/mL
- MIC (E. coli strain no 2; NO2, read-out: MIC of AZT, Table 3, E. coli strain no 2, trimethoprim 0, uridine 0 μg/ml): 20 to 25 µg/mL
- MIC (E. coli strain no 2; NO2, read-out: MIC of AZT, Table 3, E. coli strain no 2, trimethoprim 0, uridine 1 μg/ml): 10 to 20 µg/mL
- MIC (E. coli strain no 2; NO2, read-out: MIC of AZT, Table 3, E. coli strain no 2, trimethoprim 0, uridine 10 μg/ml): 10 to 20 µg/mL
- MIC (E. coli strain no 2; NO2, read-out: MIC of AZT, Table 3, E. coli strain no 2, trimethoprim 0, uridine 100 μg/ml): 2 to 10 µg/mL
- MIC (E. coli strain no 2; NO2, read-out: MIC of AZT, Table 3, E. coli strain no 2, trimethoprim 0, uridine 200 μg/ml): 2 to 10 µg/mL
- MIC (E. coli ATCC 25922): > 2 µg/mL
- MIC (K. pneumoniae EN011): 0.032 µg/mL
- MIC of AZT ([1]; uridine 10 μg/ml): >150 µg/mL
- MIC of AZT ([1]; uridine 50 μg/ml): >150 µg/mL
- MIC of AZT ([1]; uridine 100 μg/ml): >150 µg/mL
- MIC of AZT ([1]; uridine 200 μg/ml): >150 µg/mL
- MIC ([1]; Pseudomonas aeruginosa, NO10, read-out: MIC of AZT): > 150 µg/mL
- MIC (A. baumannii EN0007): >4 µg/mL
- MIC (E. coli EN013; Combination 1 (AZT+trimethoprim+uridine)): < 0.008 µg/mL
- MIC (E. coli EN013; Combination 2 (same mixed with thymidine)): < 0.008 µg/mL
- MIC (E. coli EN013; in AZT+trimethoprim+uridine combination): < 0.008 µg/mL
- MIC (P. aeruginosa EN0004): >4 µg/mL
- MIC (E. coli strain no 5): 4 to 8 µg/mL

From US10828316B2, “Method of treating bacterial infections” (priority 2016, dated 2020)
